Assays:
[1] = system: hepatitis B virus; conditions: cited from earlier work
[2] = system: Mycobacterium avium complex (MAC); assay: case report Example 8, Mycobacterium avium complex infection; assay type: in vivo, human
Experimental: A person with known history of Mycobacterium avium complex (MAC) infection of the lung and bronchiectasis for several years was treated with clarithromycin, ethambutol, ciprofloxacin and rifabutin for about five years. As a result of persistent positive sputum culture for MAC, the patient was also treated with gamma interferon (an immune booster) without significant benefit. Intravenous amikacin was added following right middle and left lingula lobectomy. In spite of the above therapy, sputum and repeat bronchial washing obtained by bronchoscopy grew MAC within three weeks. A computed tomography scan of the chest remained unchanged except for the post-surgical changes.
Sputum became clear in color then resolved. About two months after the start of oxymatrine, the patient had fevers, flu-like symptoms, increase in non-productive cough, bilateral uveitis and elevation of liver enzymes to 3.5 times normal values. The symptoms lasted two weeks and resolved after tapering dose of oxymatrine to 200 mg bid. Liver enzymes returned to normal within six weeks. […] The anti-MAC medications were discontinued after […] of oxymatrine therapy. The dose of oxymatrine was tapered to 100 mg tid at four and a half months of therapy and then stopped after six months of total therapy. The patient felt well at the six month follow-up.

[3] = system: varicella-zoster virus (VZV); assay: case report Example 9, chronic recurrent varicella-zoster virus infection (shingles); assay type: in vivo, human; conditions: 200 mg bid
Experimental: A person developed recurrent shingles after multiple episodes of sinus infections and sinus surgeries. They also had chronic indigestion and nausea. Fatigue became so severe that they were bedridden for several years.
Coxsackievirus B4 antibody was 1:320. […] The patient was started on oxymatrine 200 mg bid.

[4] = system: enterovirus; assay: case report Example 5, treatment of chronic fatigue; assay type: in vivo, human
Experimental: A person developed debilitating fatigue, sore throat, oral ulcers, vertigo, headaches and cognitive dysfunction two months after having a flu-like illness. […] Approximately four years later, the patient started taking oxymatrine. After an initial increase of gastrointestinal symptoms for the first two weeks, the patient tolerated 500 mg per day of oxymatrine.
The symptoms continued for two weeks and resolved after stopping oxymatrine. […] They continued to improve for 12 months after taking the medication.

[5] = system: cytokine gene expression; assay: cytokine gene expression study on blood samples before and after oxymatrine (FIG. 4); assay type: in vivo, human; conditions: blood samples before and after taking oxymatrine for 15 months, one patient
Source text: A cytokine gene expression study on blood samples before (Sample 2) and after (Sample 3) taking oxymatrine for 15 months in one patient, is graphically illustrated in FIG. 4. […] FIG. 5 illustrates that neutralizing antibodies CBV 3 and CBV 4 were obtained serially over a three year period (performed by ARUP laboratory, Salt Lake City, UT).

[6] = system: enterovirus; assay: case report Example 4, treatment of chronic fatigue; assay type: in vivo, human
Experimental: A person with a known history of frequent respiratory infections and vasovagal syncope developed respiratory infection, which was followed by bedridden fatigue. Enteroviral protein was detected in the stomach biopsy consistent with chronic enterovirus infection. […] After vigorous exercise, they would still have relapses of bedridden fatigue for one day but continued to work 10-12 hours per day for the next 12 months, walking two miles per day. Laboratory tests were normal while on therapy.

[7] = system: enterovirus protein; assay: immunoperoxidase staining of stomach biopsy before and after oxymatrine; assay type: in vivo, human; conditions: one patient (case 5), after taking oxymatrine for 6 months, correlated with symptomatic improvement
Source text: FIG. 2 illustrates immunoperoxidase staining for enterovirus protein in a stomach biopsy before oxymatrine therapy for one patient. […] The decrease in viral protein correlated with significant symptomatic improvement.

[8] = system: enterovirus; assay: case report Example 3, treatment of chronic fatigue; assay type: in vivo, human
Experimental: A person who had recurrent episodes of debilitating fatigue became totally incapacitated after approximately 17 years. The patient was treated with a combination of alpha and gamma interferon for six weeks with acceptable results. They went into remission but relapsed nine months later after developing a minor upper respiratory infection. They improved minimally after several months of bed rest, but was barely able to work six hours per day. They had brain fog, myalgia (7/10 pain) and was barely able to walk even 1-2 blocks.
Three days after taking oxymatrine at a dose of 300 mg bid, the myalgia intensified (10/10 pain), especially one hour after taking the pills. One week after starting oxymatrine, routine laboratory tests including CBC, chemistry panel and creatine phosphokinase (CPK) were normal. They continued having significant fatigue and myalgia for the next three weeks, but the symptoms resolved one week after stopping the medication. Mild increase in myalgia recurred three days after resuming oxymatrine, but resolved after continuing the medication for the next two weeks. The patient felt well at the end of three months with minimal discomfort in a few muscle groups.
Severe myalgia recurred after resuming vigorous exercise for three weeks while taking oxymatrine. They had to stop exercise for the two months allowing cessation of myalgia. After taking oxymatrine for six months, the patient felt well. Over the next six months after stopping the medication, the patient continuously performed heavy physical activities without significant difficulty. After developing another episode of upper respiratory symptoms, their symptoms relapsed. They have resumed oxymatrine but experienced increasing myalgia as the fatigue improved.

[9] = compared to placebo-treated animals

## O=C1CCC[C@@H]2[C@H]3CCC[N+]4([O-])CCC[C@@H](CN12)[C@@H]34 (stereo partly drawn) [oxymatrine]
[1]; [9]
  level of gamma interferon: increased more than three-fold
  level of interleukin-2: increased more than three-fold
  level of interleukin-4: decreased more than three-fold
  level of interleukin-10: decreased more than three-fold
[1]; mouse, in vivo
  effect on the hepatitis B viremia, mRNA and protein levels: No effect
[2]; about two months after start, returned to normal within six weeks after tapering to 200 mg bid
  elevation of liver enzymes: 3.5 times normal values
[2]; bronchoscopy six months after onset of oxymatrine therapy, with anti-MAC medications
  repeat bronchial washing culture: no growth of MAC
[2]; in vivo
  repeat computed tomography scans of the chest: healing and calcifications of the lesions
  tolerability: tolerated well
[2]; within two months
  night sweats: decreased from twice a week to once every two weeks
[3]
  outbreaks of shingles: less often and not as severe
[3]; three months, previously bedridden
  clinical outcome: went back to full-time work
[4]; three months after stopping oxymatrine
  clinical outcome: only had mild symptoms and was able to return to part-time work and regular exercise
[4]; two months after taking the medication, 500 mg per day, continued two weeks, resolved after stopping
  adverse symptoms: severe diffuse ulcerations of the mouth mucosa, increasing headache, sinus congestion and severe myalgia
[5]
  Th1 cytokines gene expression (interleukin-2, interleukin-12, interleukin-15): significant increase
  regulatory Th2 cytokine gene expression (interleukin-10): significant decrease
[6]; after taking the medication for six weeks, previously bedridden fatigue
  clinical outcome: returned to full-time work
[6]; in vivo
  tolerability: tolerated well without any adverse reactions
[6]; while on therapy
  laboratory tests: normal
[7]
  viral protein by staining with enterovirus-specific monoclonal antibody (5 D8/1): significant reduction
[8]; after taking oxymatrine for six months
  clinical outcome: felt well
[8]; at the end of three months, minimal discomfort in a few muscle groups
  clinical outcome: felt well
[8]; one week after starting oxymatrine
  routine laboratory tests including CBC, chemistry panel and creatine phosphokinase (CPK): normal
[8]; three days after taking 300 mg bid, 7/10 before
  myalgia (pain): 10/10
